In patent publication US20070191345A1, “3-((Hetero)arylsulfonyl)-8-'(aminoalkyl)oxyquinolines as 5-ht6 receptor antagonists for the treatment of cns disorders” (GLAXO GROUP LIMITED, priority 2004, published 2007):
pKi: −log10 of the molar value. Where a name gives a salt, the structure may show the parent alone.

biological target: T1, human cloned 5-HT6 receptors (Homo sapiens, UniProt P50406); test: Cyclase assay (cAMP production in washed membranes of HeLa 5HT6 cells, 5-HT stimulated); type: biochemical; details: not given
T1 construct: expressed in transfected cells; host or cells: HeLa cells expressing the cloned 5-HT6 receptor (washed membranes)
Method: Compounds of the invention may be tested for in vitro biological activity in accordance with the following cyclase assay:
0.5 μl of test compound in 100% dimethylsulfoxide (DMSO) was added to a white, solid 384 well assay plate (for dose response measurements the top of the concentration range is 7.5 μM final). 10 μl of washed membranes of HeLa 5HT6 cells (for preparation see WO 98/27081) in basic buffer (50 mM HEPES pH 7.4 (KOH), 10 mM MgCl2, 100 mM NaCl, 1 μl/ml 3-isobutyl-1-methylxanthine (IBMX) (Sigma-Aldrich)) was added to all wells followed by 10 μl 2×ATP buffer (100 μl/ml ATP and 1 μl/ml 3-Isobutyl-1-methylxanthine (IBMX) (Sigma-Aldrich)) with 5-HT (at a concentration equivalent to a dose response of 4×EC50). The resultant mixture was then incubated at room temperature for 30-45 minutes to allow cAMP production.
cAMP production was then measured using the DiscoveRx™ HitHunter™ chemiluminescence cAMP assay kit (DiscoveRx Corporation, 42501 Albrae Street, Fremont, Calif. 94538; Product Code: 90-0004L) or any other suitable cAMP measurement assay.
IC50 values were estimated from arbitrary designated unit (ADU) measurements from a Perkin Elmer Viewlux instrument using a four parameter logistic curve fit within EXCEL (Bowen, W. P. and Jerman, J. C. (1995), Nonlinear regression using spreadsheets. Trends in Pharmacol. Sci., 16, 413-417). Functional Ki values were calculated using the method of Cheng, Y. C. and Prussof, W. H. (Biochemical Pharmacol (1973) 22 3099-3108). pIC50 and fpKi are the negative log10 of the molar IC50 and functional Ki respectively.

T1 sequence (P50406 whole entry): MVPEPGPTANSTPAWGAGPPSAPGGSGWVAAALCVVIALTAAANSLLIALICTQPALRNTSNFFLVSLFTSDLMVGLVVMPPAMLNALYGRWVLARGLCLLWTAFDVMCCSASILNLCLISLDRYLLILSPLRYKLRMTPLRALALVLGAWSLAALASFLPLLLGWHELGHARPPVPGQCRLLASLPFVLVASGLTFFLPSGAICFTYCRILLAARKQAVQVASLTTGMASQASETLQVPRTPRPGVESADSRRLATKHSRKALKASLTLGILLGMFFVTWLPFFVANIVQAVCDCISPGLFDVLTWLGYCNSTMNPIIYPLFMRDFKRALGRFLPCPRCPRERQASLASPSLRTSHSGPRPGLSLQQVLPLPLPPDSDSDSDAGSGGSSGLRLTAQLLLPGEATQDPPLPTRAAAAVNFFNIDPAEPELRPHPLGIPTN

How did the pKi turn out when O=S(=O)(c1ccccc1)c1cnc2c(OCC3CC4CCN3CC4)cccc2c1 (stereo not drawn) [Example E22, 8-[(1-Azabicyclo[2.2.2]oct-2-ylmethyl)oxy]-3-(phenylsulfonyl) quinoline, hydrochloride] was run?
Its pKi is greater than 8.00.

same assay, conditions: membranes of HeLa 5HT6 cells; 5-HT at 4×EC50; functional Ki calculated by Cheng-Prusoff from IC50; read-out: fpKi (functional pKi, antagonist potency for the 5-HT6 receptor) (converted)

For O=S(=O)(c1ccccc1)c1cnc2c(OC[C@@H]3CCCN3)cccc2c1 [Example E3, 3-(Phenylsulfonyl)-8-{[(2S)-2-pyrrolidinylmethyl]oxy}quinoline, hydrochloride], which Ki is on record?
Its Ki is less than 10 nM.

CC(Oc1cccc2cc(S(=O)(=O)c3ccccc3)cnc12)C(C)N(C)C (stereo not drawn) [Example E6, Dimethyl(1-methyl-2-{[(3-(phenylsulfonyl)-8-quinolinyl]oxy}propyl)amine, hydrochloride] was tested. Which Ki did it give?
The Ki was less than 10 nM.

With CN1CC[C@@H](Oc2cccc3cc(S(=O)(=O)c4ccccc4)cnc23)C1 [Example E17, 8-[[(3R)-1-Methyl-3-pyrrolidinyl]oxy}-3-(phenylsulfonyl) quinoline, hydrochloride] as the compound, how does the Ki read?
The Ki was less than 10 nM.

Which Ki does the source give for O=S(=O)(c1ccccc1)c1cnc2c(OCCN3CCCC3)cccc2c1 [Example E4, 3-(Phenylsulfonyl)-8-{[2-(1-pyrrolidinyl)ethyl]oxy}quinoline, hydrochloride] here?
Its Ki is less than 10 nM.

With O=S(=O)(c1ccccc1)c1cnc2c(OC[C@H]3CCCN3)cccc2c1 [Example E7, 3-(Phenylsulfonyl)-8-{[(2R)-2-pyrrolidinylmethyl]oxy}quinoline, hydrochloride] as the compound, how does the Ki read?
Its Ki is less than 10 nM.

Which Ki does the source give for CN1CCCC(Oc2cccc3cc(S(=O)(=O)c4ccccc4)cnc23)C1 (stereo not drawn) [Example E23, 8-[(1-Methyl-3-piperidinyl)oxy]-3-(phenylsulfonyl) quinoline, hydrochloride] here?
The Ki was less than 10 nM.

Which Ki does the source give for O=S(=O)(c1ccccc1)c1cnc2c(OCC3COCCN3)cccc2c1 (stereo not drawn) [Example E24, 8-[(3-Morpholinylmethyl)oxy]-3-(phenylsulfonyl) quinoline, hydrochloride] here?
Its Ki is less than 10 nM.

Which Ki does the source give for O=S(=O)(c1ccccc1)c1cnc2c(O[C@@H]3CCNC3)cccc2c1 [Example E5, 3-(Phenylsulfonyl)-8-[(3R)-3-pyrrolidinyloxy]quinoline, hydrochloride] here?
Its Ki is less than 10 nM.

For CN(C)CCOc1cccc2cc(S(=O)(=O)c3ccccc3)cnc12 [Example E1b, [2-(3-Phenylsulfonylquinoline-8-yloxy)ethyl]dimethylamine, hydrochloride], which Ki is on record?
Its Ki is less than 10 nM.

Which Ki does the source give for O=S(=O)(c1ccccc1)c1cnc2c(OC3CCCNC3)cccc2c1 (stereo not drawn) [Example E15, 3-(Phenylsulfonyl)-8-(3-piperidinyloxy) quinoline, hydrochloride] here?
Its Ki is less than 10 nM.

Which Ki does the source give for CN1CCC[C@H]1COc1cccc2cc(S(=O)(=O)c3ccccc3)cnc12 [Example E2b, 8-({[(2S)-1-Methyl-2-pyrrolidinyl]methyl}oxy)-3-(phenylsulfonyl) quinoline, hydrochloride] here?
The Ki was less than 10 nM.
